Assay results published in ChEMBL document CHEMBL4177726, “Synthesis and anti-influenza virus evaluation of triterpene-sialic acid conjugates” (Bioorg Med Chem, 2018).

Legend:
[1] = Inhibition of Influenza A virus A/Duck/313/4/78(H5N3) sialidase at 3.33 x 10^-4M preincubated for 15 mins followed by MUNA substrate addition measured after 15 mins by fluorescence assay relative to control
[2] = system: MDCK; assay: Cytotoxicity against MDCK cells assessed as reduction in cell viability at 1 x 10^-5 M after 24 hrs by CCK8 assay; format: cell-based, Canis lupus familiaris; conditions: dog, 10 µM
[3] = target: Neuraminidase (Influenza A virus (A/Puerto Rico/8/1934(H1N1))) (UniProt P03468); assay: Inhibition of Influenza A virus A/PR/8/34(H1N1) sialidase at 3.33 x 10^-4M preincubated for 15 mins followed by MUNA substrate addition measured after 15 mins by fluorescence assay relative to control
[4] = system: Influenza A virus; assay: Antiviral activity against Influenza A virus A/PR/8/34(H1N1) infected in MDCK cells assessed as viral yield at 1 x 10^-5 M preincubated with virus for 1 hr followed by viral infection measured after 18 hrs by beta-galactosidase based fluorescence assay (reference value: 100%); format: functional, A/Puerto Rico/8/1934(H1N1)
[5] = target: Neuraminidase (Influenza A virus (A/Memphis/1/1971(H3N2))) (UniProt P03471); assay: Inhibition of Influenza A virus A/Memphis/1/71(H3N2) sialidase at 3.33 x 10^-4M preincubated for 15 mins followed by MUNA substrate addition measured after 15 mins by fluorescence assay relative to control
[6] = system: Influenza A virus; assay: Antiviral activity against Influenza A virus A/PR/8/34(H1N1) infected in MDCK cells assessed as reduction in viral yield at 1 x 10^-5 M preincubated with virus for 1 hr followed by viral infection measured after 18 hrs by beta-galactosidase based fluorescence assay; format: functional, organism-based; conditions: A/Puerto Rico/8/1934(H1N1)

Sequence of Neuraminidase (Influenza A virus (A/Puerto Rico/8/1934(H1N1))) (P03468 whole entry): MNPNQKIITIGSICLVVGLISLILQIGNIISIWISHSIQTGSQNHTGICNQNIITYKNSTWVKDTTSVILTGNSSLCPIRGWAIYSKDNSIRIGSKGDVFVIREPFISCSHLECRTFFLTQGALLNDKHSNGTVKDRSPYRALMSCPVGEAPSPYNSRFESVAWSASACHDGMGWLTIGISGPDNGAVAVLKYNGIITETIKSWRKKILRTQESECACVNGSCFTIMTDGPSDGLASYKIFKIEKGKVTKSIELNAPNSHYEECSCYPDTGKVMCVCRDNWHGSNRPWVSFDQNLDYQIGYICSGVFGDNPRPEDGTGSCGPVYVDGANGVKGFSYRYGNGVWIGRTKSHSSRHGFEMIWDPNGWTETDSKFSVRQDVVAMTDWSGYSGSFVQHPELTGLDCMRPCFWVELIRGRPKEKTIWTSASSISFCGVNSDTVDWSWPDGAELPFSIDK
Sequence of Neuraminidase (Influenza A virus (A/Memphis/1/1971(H3N2))) (P03471 whole entry): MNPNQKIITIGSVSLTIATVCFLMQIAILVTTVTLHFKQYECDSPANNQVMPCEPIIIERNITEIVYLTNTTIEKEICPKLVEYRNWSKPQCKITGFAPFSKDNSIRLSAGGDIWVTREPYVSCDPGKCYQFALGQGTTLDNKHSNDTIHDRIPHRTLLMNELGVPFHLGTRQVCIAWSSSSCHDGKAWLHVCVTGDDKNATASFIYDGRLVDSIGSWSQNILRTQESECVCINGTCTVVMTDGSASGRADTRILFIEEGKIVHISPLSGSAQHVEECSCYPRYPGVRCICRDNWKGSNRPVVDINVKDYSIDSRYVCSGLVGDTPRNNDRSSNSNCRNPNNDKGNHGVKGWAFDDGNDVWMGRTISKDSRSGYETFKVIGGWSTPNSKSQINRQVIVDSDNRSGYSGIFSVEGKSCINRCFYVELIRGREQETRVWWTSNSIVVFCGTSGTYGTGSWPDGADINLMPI

Row | Structure (SMILES) | inhibition [1] [%] | Activity [2] | inhibition [3] [%] | Activity [4] [%] | inhibition [5] [%] | Activity [6]
1 | CC(=O)N[C@H]1[C@H]([C@H](O)[C@H](O)CO)O[C@](O[C@H]2CC[C@]3(C)[C@H]4CC=C5[C@@H]6C[C@@](C)(CO)CC[C@]6(C)CC[C@@]5(C)[C@]4(C)CC[C@H]3C2(C)C)(C(=O)O)C[C@@H]1O | 55.7 | Non-Toxic | 76.7 | 72.6 | 68.7 | Dose-dependent effect
2 | COC(=O)[C@@]1(C)CC[C@]2(C)CC[C@]3(C)C(=CC(=O)[C@@H]4[C@@]5(C)CC[C@H](O[C@@]6(C(=O)O)C[C@H](O)[C@@H](NC(C)=O)[C@H]([C@H](O)[C@H](O)CO)O6)C(C)(C)[C@@H]5CC[C@]43C)[C@@H]2C1 | 46.2 |  | 35.4 |  | 44.8 | 
3 | CC(=O)N[C@H]1[C@H]([C@H](O)[C@H](O)CO)O[C@](O[C@H]2CC[C@]3(C)[C@H]4CC=C5[C@@H]6CC(C)(C)CC[C@]6(C(=O)O)CC[C@@]5(C)[C@]4(C)CC[C@H]3C2(C)C)(C(=O)O)C[C@@H]1O | 34.6 |  | 33.2 |  | 26.5 | 
4 | COC(=O)[C@@]1(C)CC[C@]2(C)CC[C@]3(C)C(=CC(=O)[C@@H]4[C@@]5(C)CC[C@H](O[C@]6(C(=O)O)C[C@H](O)[C@@H](NC(C)=O)[C@H]([C@H](O)[C@H](O)CO)O6)C(C)(C)[C@@H]5CC[C@]43C)[C@@H]2C1 | 27.5 |  | 52.2 |  | 39.9 | 
5 | COC(=O)[C@]12CCC(C)(C)C[C@H]1C1=CC[C@@H]3[C@@]4(C)CC[C@H](O[C@@]5(C(=O)O)C[C@H](O)[C@@H](NC(C)=O)[C@H]([C@H](O)[C@H](O)CO)O5)C(C)(C)[C@@H]4CC[C@@]3(C)[C@]1(C)CC2 | 70.7 | Non-Toxic | 89.9 | 46.7 | 64.9 | Dose-dependent effect
6 | COC(=O)[C@]12CCC(C)(C)C[C@H]1C1=CC[C@@H]3[C@@]4(C)CC[C@H](O[C@]5(C(=O)O)C[C@H](O)[C@@H](NC(C)=O)[C@H]([C@H](O)[C@H](O)CO)O5)C(C)(C)[C@@H]4CC[C@@]3(C)[C@]1(C)CC2 | 65.7 | Non-Toxic | 74.9 | 39.4 | 70.7 | 
7 | CC(=O)N[C@H]1[C@H]([C@H](O)[C@H](O)CO)O[C@@](O[C@H]2CC[C@]3(C)[C@H]4C(=O)C=C5[C@@H]6C[C@@](C)(CO)CC[C@]6(C)CC[C@@]5(C)[C@]4(C)CC[C@H]3C2(C)C)(C(=O)O)C[C@@H]1O | 25.3 |  | 50.3 |  | 30.3 | 
8 | CC(=O)N[C@H]1[C@H]([C@H](O)[C@H](O)CO)O[C@@](O[C@H]2CC[C@]3(C)[C@H]4C(=O)C=C5[C@@H]6C[C@@](C)(C(=O)O)CC[C@]6(C)CC[C@@]5(C)[C@]4(C)CC[C@H]3C2(C)C)(C(=O)O)C[C@@H]1O | 16.4 |  | 50.1 |  | 27.4 | 
9 | CC(=O)N[C@H]1[C@H]([C@H](O)[C@H](O)CO)O[C@](O[C@H]2CC[C@]3(C)[C@H]4C(=O)C=C5[C@@H]6C[C@@](C)(CO)CC[C@]6(C)CC[C@@]5(C)[C@]4(C)CC[C@H]3C2(C)C)(C(=O)O)C[C@@H]1O | 43.8 |  | 35.8 |  | 40.3 | 
10 | CC(=O)N[C@H]1[C@H]([C@H](O)[C@H](O)CO)O[C@@](O[C@H]2CC[C@]3(C)[C@H]4CC=C5[C@@H]6C[C@@](C)(CO)CC[C@]6(C)CC[C@@]5(C)[C@]4(C)CC[C@H]3C2(C)C)(C(=O)O)C[C@@H]1O | 57.6 | Non-Toxic | 71 | 88 | 45 | 
11 | CC(=O)N[C@H]1[C@H]([C@H](O)[C@H](O)CO)O[C@](O[C@H]2CC[C@]3(C)[C@H]4C(=O)C=C5[C@@H]6C[C@@](C)(C(=O)O)CC[C@]6(C)CC[C@@]5(C)[C@]4(C)CC[C@H]3C2(C)C)(C(=O)O)C[C@@H]1O | 25.8 |  | 21.1 |  | 23.4 | 
